Results from the NIST ThermoML archive (doi:10.1016/j.jct.2011.10.027).
Numbers after ± are expanded uncertainties.

Assay: xn = mol fraction of the nth substance listed
Details: 101 kPa, Liquid, Vibrating tube method

## CCCCN(CCCC)CCCC [tributylamine] + O=[N+]([O-])c1ccccc1
293.15 K, x1 = 0.0806
  mass density: 1132.44 ± 0.37 kg/m3
293.15 K, x1 = 0.1692
  mass density: 1068.2 ± 0.32 kg/m3
293.15 K, x1 = 0.2426
  mass density: 1023.24 ± 0.27 kg/m3
293.15 K, x1 = 0.3259
  mass density: 979.47 ± 0.25 kg/m3
293.15 K, x1 = 0.3993
  mass density: 945.96 ± 0.25 kg/m3
293.15 K, x1 = 0.4829
  mass density: 912.69 ± 0.25 kg/m3
293.15 K, x1 = 0.5607
  mass density: 885.41 ± 0.24 kg/m3
293.15 K, x1 = 0.6392
  mass density: 861.09 ± 0.24 kg/m3
293.15 K, x1 = 0.7176
  mass density: 839.19 ± 0.24 kg/m3
293.15 K, x1 = 0.7976
  mass density: 819.27 ± 0.24 kg/m3
293.15 K, x1 = 0.8779
  mass density: 801.19 ± 0.24 kg/m3
293.15 K, x1 = 0.9546
  mass density: 785.56 ± 0.24 kg/m3
298.15 K, x1 = 0.0806
  mass density: 1127.65 ± 0.36 kg/m3
298.15 K, x1 = 0.1692
  mass density: 1063.58 ± 0.31 kg/m3
298.15 K, x1 = 0.2426
  mass density: 1018.75 ± 0.27 kg/m3
298.15 K, x1 = 0.3259
  mass density: 975.11 ± 0.25 kg/m3
298.15 K, x1 = 0.3993
  mass density: 941.69 ± 0.25 kg/m3
298.15 K, x1 = 0.4829
  mass density: 908.52 ± 0.24 kg/m3
298.15 K, x1 = 0.5607
  mass density: 881.32 ± 0.24 kg/m3
298.15 K, x1 = 0.6392
  mass density: 857.07 ± 0.24 kg/m3
298.15 K, x1 = 0.7176
  mass density: 835.25 ± 0.24 kg/m3
298.15 K, x1 = 0.7976
  mass density: 815.39 ± 0.24 kg/m3
298.15 K, x1 = 0.8779
  mass density: 797.38 ± 0.24 kg/m3
298.15 K, x1 = 0.9546
  mass density: 781.8 ± 0.24 kg/m3
303.15 K, x1 = 0.0806
  mass density: 1122.87 ± 0.36 kg/m3
303.15 K, x1 = 0.1692
  mass density: 1058.97 ± 0.31 kg/m3
303.15 K, x1 = 0.2426
  mass density: 1014.26 ± 0.27 kg/m3
303.15 K, x1 = 0.3259
  mass density: 970.74 ± 0.25 kg/m3
303.15 K, x1 = 0.3993
  mass density: 937.43 ± 0.25 kg/m3
303.15 K, x1 = 0.4829
  mass density: 904.33 ± 0.24 kg/m3
303.15 K, x1 = 0.5607
  mass density: 877.22 ± 0.24 kg/m3
303.15 K, x1 = 0.6392
  mass density: 853.04 ± 0.24 kg/m3
303.15 K, x1 = 0.7176
  mass density: 831.29 ± 0.24 kg/m3
303.15 K, x1 = 0.7976
  mass density: 811.5 ± 0.24 kg/m3
303.15 K, x1 = 0.8779
  mass density: 793.55 ± 0.24 kg/m3
303.15 K, x1 = 0.9546
  mass density: 778.03 ± 0.24 kg/m3
313.15 K, x1 = 0.0806
  mass density: 1113.29 ± 0.35 kg/m3
313.15 K, x1 = 0.1692
  mass density: 1049.72 ± 0.3 kg/m3
313.15 K, x1 = 0.2426
  mass density: 1005.27 ± 0.26 kg/m3
313.15 K, x1 = 0.3259
  mass density: 961.98 ± 0.25 kg/m3
313.15 K, x1 = 0.3993
  mass density: 928.86 ± 0.25 kg/m3
313.15 K, x1 = 0.4829
  mass density: 895.96 ± 0.24 kg/m3
313.15 K, x1 = 0.5607
  mass density: 869.01 ± 0.24 kg/m3
313.15 K, x1 = 0.6392
  mass density: 844.97 ± 0.24 kg/m3
313.15 K, x1 = 0.7176
  mass density: 823.36 ± 0.24 kg/m3
313.15 K, x1 = 0.7976
  mass density: 803.7 ± 0.24 kg/m3
313.15 K, x1 = 0.8779
  mass density: 785.88 ± 0.24 kg/m3
313.15 K, x1 = 0.9546
  mass density: 770.48 ± 0.24 kg/m3
323.15 K, x1 = 0.0806
  mass density: 1103.7 ± 0.34 kg/m3
323.15 K, x1 = 0.1692
  mass density: 1040.46 ± 0.29 kg/m3
323.15 K, x1 = 0.2426
  mass density: 996.24 ± 0.26 kg/m3
323.15 K, x1 = 0.3259
  mass density: 953.2 ± 0.25 kg/m3
323.15 K, x1 = 0.3993
  mass density: 920.27 ± 0.25 kg/m3
323.15 K, x1 = 0.4829
  mass density: 887.56 ± 0.25 kg/m3
323.15 K, x1 = 0.5607
  mass density: 860.76 ± 0.24 kg/m3
323.15 K, x1 = 0.6392
  mass density: 836.86 ± 0.24 kg/m3
323.15 K, x1 = 0.7176
  mass density: 815.4 ± 0.24 kg/m3
323.15 K, x1 = 0.7976
  mass density: 795.86 ± 0.24 kg/m3
323.15 K, x1 = 0.8779
  mass density: 778.17 ± 0.24 kg/m3
323.15 K, x1 = 0.9546
  mass density: 762.89 ± 0.24 kg/m3
333.15 K, x1 = 0.0806
  mass density: 1094.1 ± 0.34 kg/m3
333.15 K, x1 = 0.1692
  mass density: 1031.17 ± 0.29 kg/m3
333.15 K, x1 = 0.2426
  mass density: 987.2 ± 0.26 kg/m3
333.15 K, x1 = 0.3259
  mass density: 944.4 ± 0.25 kg/m3
333.15 K, x1 = 0.3993
  mass density: 911.63 ± 0.25 kg/m3
333.15 K, x1 = 0.4829
  mass density: 879.12 ± 0.25 kg/m3
333.15 K, x1 = 0.5607
  mass density: 852.46 ± 0.24 kg/m3
333.15 K, x1 = 0.6392
  mass density: 828.72 ± 0.24 kg/m3
333.15 K, x1 = 0.7176
  mass density: 807.4 ± 0.24 kg/m3
333.15 K, x1 = 0.7976
  mass density: 787.99 ± 0.24 kg/m3
333.15 K, x1 = 0.8779
  mass density: 770.42 ± 0.24 kg/m3
333.15 K, x1 = 0.9546
  mass density: 755.25 ± 0.24 kg/m3
